Here are results for eight compounds from EP0745083B1, “2-HETEROARYL-5,11-DIHYDRO-6H-DIPYRIDO [3,2-b:2',3'-e][1,4]DIAZEPINES AND THEIR USE IN THE PREVENTION OR TREATMENT OF HIV INFECTION” (BOEHRINGER INGELHEIM PHARMACEUTICALS INC., priority 1994, dated 1995).

The nature of one data set: MTT assay (cytotoxicity). Type of data set: cell-based. The settings on record: human; H9 cells; five days incubation. The protocol: In order to roughly assess the cytotoxicity of the compounds provided by the invention, several such compounds were tested in the MTT Assay described below. Compounds having a relatively high CC50 are preferred.
The MTT [3-(4,5-dimethylthiazol-2-yl)-2,5 diphenyl tetrazolium bromide) assay is based on cleavage of tetrazolium bromide by metabolically active cells, resulting in a highly quantitative blue color. This assay has been previously described (1) but has been optimized for the purposes of the testing reported herein.
The H9 cell line (2), an established human lymphoma suspension cell line grown in RPMI 1640 supplemented with 10% fetal bovine serum, is used as the target cell line in the assay. Cells (100µL) are plated in microtest plate wells at a concentration of 10^5 cells per mL in the presence of varying concentrations of inhibitor. The cells are incubated at 37°C in a humidified CO2 incubator. Five days later, 20µL of MTT (5mg/mL in RPMI 1640, sonicated, 0.2 micron filtered, and stored at 4°C) is added to each well. After 4 hours additional incubation at 37°C, 60µL of Triton-X is added to each well and thoroughly mixed to aid the solubilization of the crystals. Absolute ethanol (5µL) is added to each well and the resulting mixture is incubated for 30 minutes at 60°C and immediately read on a plate reader (Dynatech) at a wavelength of 570nm.
Data from this assay are used to generate a nonlinear regression analysis which yields an CC50.
On the technique in general: Formazan colour is commonly taken as a measure of viable cells.

The next data set concerns the target T1, HIV-1 RT Y188L (Human immunodeficiency virus type 1 group M subtype B, UniProt P03367, Y787L).
T1 construct: effective against the reverse transcriptase of many mutant viruses; made in house
Put plainly: Reverse Transcriptase (RT) Assay, Y188L mutant enzyme. Type of data set: biochemical, Human Immunodeficiency Virus (HIV-1). The following applies: 1 µM compound.

The target of a further data set is T2, HIV-1 RT Y181C (Human immunodeficiency virus type 1 group M subtype B, UniProt P03367, Y780C).
T2 construct: Utilization of mutant RT eraymes (Y181C and Y181L, prepared by site-directed mutagenesis); made in house
Put plainly: Reverse Transcriptase (RT) Assay, Y181C mutant enzyme. Type of data set: biochemical, Human Immunodeficiency Virus (HIV-1). The settings on record: 1 µM compound; for inhibition at 1 µM: read-out: Reverse Transciptase Assay % inhibition (1 µM) Y181C. The source says:
(§1) Among the enzymes for which Human Immunodeficiency Virus (HIV-1) encodes is a reverse transcriptase (1), so-named because it transcribes a DNA copy from an RNA template. This activity can be quantitatively measured in a cell-free enzyme assay, which has been previously described (2), and is based upon the observation that reverse transcriptase is able to use a synthetic template [poly r(C) primed with oligo d(G)] to transcribe a radio-labelled, acid-precipitable DNA strand utilizing ^3H-dGTP as a substrate. The assay described below utilizes the wild type (WT) enzyme, which is the predominant form of the enzyme observed in patients infected with HIV-1. Utilization of mutant RT eraymes (Y181C and Y181L, prepared by site-directed mutagenesis in which the tyrosine residue at codon 181 has been replaced by a cysteine or a leucine residue, respectively) and analogous assay conditions allows compounds to be evaluated for their effectiveness at inhibiting these mutant enzymes.
(§2) The 2X concentrated stock reaction mixture is aliquoted and stored at -20°C. The mixture is stable and thawed for use in each assay. This enzyme assay has been adapted to a 96 well microtiter plate system, and has been previously described (6). Tris buffer (50 mM, pH 7.4), vehicle (solvent diluted to match the compound dilution), or compounds in vehicle are dispensed into 96-well microtiter plates (10µL/well; 3 wells/ compound). The HIV-1 RT enzyme is thawed, diluted in 50mM Tris pH 7.4 so that fifteen µL of diluted enzyme contain 0.001 Unit (one unit is that amount of enzyme to transform 1 micromole of substrate per minute at 25°C), and fifteen µL are dispensed per well. Twenty µL of 0.12-0.5M EDTA are added to the first three wells of the microtiter plate. EDTA chelates the Mg^++ present and prevents reverse transcription. This group serves as background polymerization which is subtracted from all other groups. Twenty-five ul of the 2X reaction mixture are added to all wells and the assay is allowed to incubate at room temperature for 60 minutes. The assay is terminated by precipitating the DNA in each well with 50µL of 10% trichloracetic acid (TCA) (10% w/v) in sodium pyrophosphate (1% w/v). The microtiter plate is incubated for 15 minutes at 4°C and the precipitate is fixed onto #30 glass fiber paper (Schleicher & Schuell) using a Skatron semi-automatic harvester. The filters are then washed with additional TCA (5%) containing sodium pyrophosphate (1%), rinsed with aqueous ethanol (70%), dried, and transferred to scintillation vials (6). Each vial receives 2 mL of scintillation cocktail and is counted in a Beckman beta counter. The calculation for percent inhibition is as follows: % inhibition =(CPM Mean Test Value - CPM Mean Control Value X100)/(CPM Mean Control Value) [formula]

For data set [1], the target named is T3, HIV-1 RT wild type (WT) enzyme (Human immunodeficiency virus type 1 group M subtype B, UniProt P03367).
T3 construct: Reverse transcriptase enzyme from the LAV strain of Human Immunodeficiency Virus (HIV-1) (1) was isolated from the bacterial strain JM109; made in house; host or cells: E. coli JM109 (clone pBRTprt1+ in vector pIBI21, lac promoter)
The data set can be described thus: Reverse Transcriptase (RT) Assay, wild type enzyme (RNA-dependent DNA polymerase activity). Type of data set: biochemical, Human Immunodeficiency Virus (HIV-1). The following applies: 1 µM compound; for inhibition at 1 µM: read-out: Reverse Transciptase Assay % inhibition (1 µM) WT.
Source text: Utilizing the Reverse Transcriptase (RT) Assay described below, compounds can be tested for their ability to inhibit the RNA-dependent DNA polymerase activity of HIV-1 RT. Certain specific compounds described in the Examples which appear below, were so tested.
as §1
Reverse transcriptase enzyme from the LAV strain of Human Immunodeficiency Virus (HIV-1) (1) was isolated from the bacterial strain JM109 (3) expressing the DNA clone pBRTprt1+ (2) which is under the control of the lac promotor in the expression vector pIBI21 (4). An overnight culture grown in 2XYT medium (37°C, 225 rpm) (5) supplemented with 100 µg/mL ampicillin for positive selection is inoculated at a 1:40 dilution into M9 medium supplemented with 10µg/mL thiamine, 0.5% casamino acids, and 50 µg/mL ampicillin (5). The culture is incubated (37°C, 225 rpm) until it reaches an OD540 of 0.3-0.4. At that time the repressor inhibitor IPTG (isopropyl β-D-thiogalactopyranoside) is added to 0.5mM, and the mixture is incubated for 2 additional hours. Bacteria are pelleted, resuspended in a 50mM Tris, 0.6mM EDTA, 0.375M NaCl buffer and digested by the addition of lysozyme (1mg/mL) for 30 minutes on ice. The cells are lysed by the addition of 0.2% NP-40 and brought to 1M NaCl.
After removal of the insoluble debris by centrifugation, the protein is precipitated by the addition of 3 volumes of saturated aqueous ammonium sulfate. The enzyme is pelleted, resuspended in RT buffer (50mM Tris pH 7.5, 1mM EDTA, 5mM DTT, 0.1% NP-40, 0.1M NaCI, and 50% glycerol), and stored at -70°C for further use.
as §2, with “The filters are then washed with additional TCA (5%) containing sodium pyrophosphate (1%), rinsed with aqueous ethanol (70%), dried, and transferred to scintillation vials (6). Each vial receives 2 mL of scintillation cocktail and is counted in a Beckman beta counter. The calculation for percent inhibition is as follows: % inhibition =(CPM Mean Test Value - CPM Mean Control Value X100)/(CPM Mean Control Value) [formula]” left out

With `CCN1c2ncccc2C(=O)N(C)c2ccc(-c3cnn(CC)c3)nc21` [Example 2, 5,11-Dihydro-11-ethyl-2-(1-ethylpyrazol-4-yl)-5-methyl-6H-dipyrido[3,2-b:2',3'-e][1,4]-diazepin-6-one], the CC50 (commonly the concentration giving 50% cytotoxicity) at 120 h in “MTT assay (cytotoxicity)” was > 60 µM. For the same compound, the “Reverse Transciptase Assay % inhibition (1 µM) Y188L” value at HIV-1 RT Y188L is reported as 13%. Further, the inhibition (commonly the percentage by which the read-out fell short of the control) at 1 µM at HIV-1 RT Y181C came to 72%; in data set [1], 67%.
For `CCCN1c2nc(-c3cn[nH]c3)ccc2NC(=O)c2cccnc21` [Example 4, 5,11-Dihydro-11-n-propyl-2-(4-pyrazolyl)-6H-dipyrido[3,2-b:2',3'-e][1,4]diazepin-6-one], in “MTT assay (cytotoxicity)”, the CC50 at 120 h was > 60 µM. Also, the “Reverse Transciptase Assay % inhibition (1 µM) Y188L” value on HIV-1 RT Y188L is reported as 29%. Also, the figures for the inhibition at 1 µM (on HIV-1 RT Y181C; in data set [1]) were 54% and 60%, respectively.
The matching figures for `CCCN1c2ncccc2C(=O)N(C)c2ccc(-c3cn[nH]c3)nc21` [Example 5, 5,11-Dihydro-5-methyl-11-n-propyl-2-(4-pyrazolyl)-6H-dipyrido[3,2-b:2',3'-e][1,4]diazepin 6-one]: > 60 µM, 63%, 90% and 90%.
Regarding `CCN1C(=O)c2cccnc2N(C)c2nc(-c3ccc[nH]3)ccc21` [Example 23, 5,11-Dihydro-5-ethyl-11-methyl-2-(2-pyrrolyl)-6H-dipyrido[3,2-b:2',3'-e][1,4]diazepin-6-one], on HIV-1 RT Y188L, the “Reverse Transciptase Assay % inhibition (1 µM) Y188L” value amounted to 47%. In addition, the values for the inhibition at 1 µM (on HIV-1 RT Y181C; in data set [1]) were 37% and 58%, respectively.
For `CN1C(=O)c2cccnc2N(C)c2nc(-c3ccc[nH]3)ccc21` [Example 24, 5,11-Dihydro-5,11-dimethyl-2-(2-pyrrolyl)-6H-dipyrido[3,2-b:2',3'-e][1,4]diazepin-6-one], on HIV-1 RT Y188L, the “Reverse Transciptase Assay % inhibition (1 µM) Y188L” value is given as 18%. Besides, the inhibition at 1 µM on HIV-1 RT Y181C is 50%; in data set [1], 39%.
With `CCN1c2ncccc2C(=O)N(C)c2ccc(-c3cn[nH]c3)nc21` [Example 26, 5,11-Dihydro-11-ethyl-5-methyl-2-(4-pyrazolyl)-6H-dipyrido[3,3-b:2',3'-e][1,4]diazepine-6-one], the “Reverse Transciptase Assay % inhibition (1 µM) Y188L” value on HIV-1 RT Y188L (1 µM) was 20%. Besides, the “Reverse Transciptase Assay % inhibition (1 µM) Y181C” value at HIV-1 RT Y181C is given as 33%. Moreover, the “Reverse Transciptase Assay % inhibition (1 µM) WT” value in data set [1] was 64%.
Turning to `CCN1c2ncccc2C(=O)N(C)c2ccc(-c3cc4cc(OC)ccc4[nH]3)nc21` [Example 27, 5,11-Dihydro-11-ethyl-2-(5-methoxyindol-2-yl)-5-methyl-6H-dipyrido[3,2-b:2',3'-e][1,4]-diazepin-6-one], on HIV-1 RT Y188L, the “Reverse Transciptase Assay % inhibition (1 µM) Y188L” value turned out to be 58%. The inhibition at 1 µM on HIV-1 RT Y181C turned out to be 45%; in data set [1], 61%.
Consider `CCN1c2ncccc2C(=O)N(C)c2ccc(-c3c[nH]c4ccccc34)nc21` [Example 28, 5,11-Dihydro-11-ethyl-2-(indol-3-yl)-5-methyl-6H-dipyrido[3,2-b:2',3'-e][1,4]diazepin-6-one], for which the 50% cytotoxic concentration (CC50) at 120 h in “MTT assay (cytotoxicity)” was > 15 µM. For the same compound, the “Reverse Transciptase Assay % inhibition (1 µM) Y188L” value on HIV-1 RT Y188L was found to be 72%. For the same compound, the inhibition at 1 µM came out at 93% on HIV-1 RT Y181C and 96% in data set [1].
